Values of other authors in US8509867B2, “Non-invasive measurement of analytes” (Cercacor Laboratories, Inc., priority 2002, dated 2013).

Key:
[1] = i.v., rats (Merck)

COC(=O)c1ccccc1-c1c2ccc(=N)cc-2oc2cc(N)ccc12 [Rh123, (2-(6-Amino-3-imino-3H-xanthen-9-yl)benzoic acid methyl ester)]
fifty percent lethality (LD50) [1]: 89.5 mg/kg
intravenous lethal dose for animals (LD10): approximately 20 mg/kg of body weight
